In patent US4432983A (Research Corporation, priority 1981, dated 1984):
“Also recorded” adds a separate entry of the source.

Columns and labels:
[1] = target: histamine H1-receptor (isolated guinea pig ileum) (Cavia porcellus, UniProt P31389); assay: Histamine H1-receptor antagonism: histamine-induced contraction of isolated guinea pig ileum; details: result in words, 1×10^-6 M
Method: Compounds 11, 17, 18, and 19 were screened for H1 -antihistaminic activity by observing if any significant blockage of histamine-induced contraction of the isolated guinea pig ileum occurred. After sacrificing the guinea pig by a blow to the head, longitudinal segments of the terminal ileum were removed and freed of mesentery and blood vessels. The same apparatus and physiological solution employed in the atrial preparation were used in these experiments. The tissue was loaded with a 500 mg tension and adjustments were made repeatedly until the baseline stabilized at this tension load. Atropine sulfate (1×10^-6 M) was added to block the influence of endogenously stored acetylcholine and the preparation was allowed to equilibrate for 15 minutes before any other compounds were added. The concentration of test compound used was 1×10^-6 M. Visual determination of the absence of significant reduction in histamine-induced contractions of the ileum in the presence and absence of each test compound was interpreted as an absence of H1 -antihistaminic activity. Generally, H1 -antagonism is considered to be potent if significant reduction in ileal contractility occurs with antagonist concentrations less than micromolar.

[2] = target: T1, histamine H2-receptor (isolated guinea pig right atrium) (Cavia porcellus, UniProt P47747); assay: Histamine H2-receptor antagonism: histamine-induced chronotropic response of isolated guinea pig right atrium; details: for ED50 of histamine (95% CL): histamine ED50 for increase in heart rate, 10^-6 M propranolol; for ED50 of histamine (95% CL) / Slope (95% CL): alone (control) or in presence of 10^-6 M compound, 95% CL in brackets; for slope / shift of the histamine log dose-response curve in presence of compound / histamine H2-receptor antagonist activity: result in words; for histamine H2-receptor antagonist activity: 10^-6 M, guinea pig right atrium; for Slope (95% CL): slope of histamine log dose-response regression line; for ED50 of histamine on the right atrium: histamine alone or with 10^-6 M antagonist, ± as printed in text
T1 construct: All other tissue was carefully trimmed away, leaving only the right atrium; from tissue; host or cells: isolated right atrium of guinea pig (Hartley strain) heart
T1 sequence (P47747 whole entry): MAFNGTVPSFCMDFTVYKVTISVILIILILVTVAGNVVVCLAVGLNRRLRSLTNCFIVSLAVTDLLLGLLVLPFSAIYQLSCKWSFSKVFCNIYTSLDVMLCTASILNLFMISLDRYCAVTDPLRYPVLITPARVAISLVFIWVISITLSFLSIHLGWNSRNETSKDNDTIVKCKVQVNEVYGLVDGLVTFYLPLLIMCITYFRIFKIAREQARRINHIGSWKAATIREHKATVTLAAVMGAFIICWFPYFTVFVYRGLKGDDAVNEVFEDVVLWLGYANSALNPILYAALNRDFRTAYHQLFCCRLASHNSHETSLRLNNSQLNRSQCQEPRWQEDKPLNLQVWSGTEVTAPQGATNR
Method: Guinea pigs (Hartley strain) of either sex (400-700 g) were allowed at least two weeks acclimation period. The animals were housed two per cage in wire-meshed bottom stainless steel cages in animal quarters maintained on a 12 hour light:12 hour dark cycle with ambient temperature of approximately 24° C. Food (Ralston-Purina guinea pig chow #5025) and water were provided ad libitum.
(§1) The animals were stunned by a blow to the head and the heart was quickly removed and placed in Tyrode's solution (composition in g/L of distilled water: NaCl, 8.00; KCl, 0.20; MgSO4.7 H2 O, 0.10; CaCl2, 0.20; NaH2 PO4, 0.05; NaHCO3, 1.00; glucose, 1.00) at room temperature. All other tissue was carefully trimmed away, leaving only the right atrium. The base of the atrium was attached to a fixed pin in a 50 mL Magnus bath of the overflow type, while the atrial apex was similarly connected to a physiograph (Narco Bio-Systems) via a photoelectric force transducer (Narco Bio-Systems, sensitivity=0.05 g/cm). A 400 mg tension was constantly applied to the tissue. The Magnus bath was surrounded by water maintained at 37° C. with a constant temperature circulating pump. The bath was continually oxygenated (95% O2, 5% CO2) via a sintered glass gas delivery tube directly beneath the tissue support base.
Propanolol (1×10^-6 M) was added to each preparation in order to eliminate the influence of endogenously stored catecholamine release. Following the addition of propanolol, test compound was added and the tissue was allowed to equilibrate for 30 minutes.
Solutions of the test compounds were similarly prepared.
A straight line was fitted to the data points of each determination within each group by linear regression analysis. The slope and the ED50 were calculated from the regression line, the slopes and ED50 values of each group were averaged, and the standard deviations were calculated. Calculation of the linear regression gave values for the correlation coefficient (r) slope, average of x values, average of y values, and log ED50. With this information a straight line representing a mean of the data from the separate determinations of each group could be plotted, i.e. a straight line passing through the mean x value and the mean y value and having the mean slope. The 95 percent confidence limits were calculated using the following formula: confidence limits=±ts√N where t=Student's t value, s=standard deviation, and N=number of determinations.

isolated right atrium = assay: Agonist activity: effect of compound alone on heart rate or force of isolated right atrium; design: species or system guinea pig; details: cumulative additions, 10^-5 to 10^-3 M
Method: as §1
A KB value was not calculated since the utility of these values is contingent upon the presence of competitive inhibition. […] A non-competitive component of the antagonism would be expected to depress the curve. […] An additional experiment adding only 11 to the bath was carried out in an attempt to detect possible interfering agonist activity. […] The reason for this atypical curve is not known.

[3] = system: H2-receptor (guinea pig isolated right atrium); details: cited from earlier work
[4] = system: histamine-induced gastric acid secretion; details: dogs; cited from earlier work
peptic ulcers = details: cited from earlier work
H2-receptor = details: previously reported; read-out: KB (apparent dissociation constant), previously reported; cited from earlier work

Chain of histamine H1-receptor (isolated guinea pig ileum) (P31389 whole entry): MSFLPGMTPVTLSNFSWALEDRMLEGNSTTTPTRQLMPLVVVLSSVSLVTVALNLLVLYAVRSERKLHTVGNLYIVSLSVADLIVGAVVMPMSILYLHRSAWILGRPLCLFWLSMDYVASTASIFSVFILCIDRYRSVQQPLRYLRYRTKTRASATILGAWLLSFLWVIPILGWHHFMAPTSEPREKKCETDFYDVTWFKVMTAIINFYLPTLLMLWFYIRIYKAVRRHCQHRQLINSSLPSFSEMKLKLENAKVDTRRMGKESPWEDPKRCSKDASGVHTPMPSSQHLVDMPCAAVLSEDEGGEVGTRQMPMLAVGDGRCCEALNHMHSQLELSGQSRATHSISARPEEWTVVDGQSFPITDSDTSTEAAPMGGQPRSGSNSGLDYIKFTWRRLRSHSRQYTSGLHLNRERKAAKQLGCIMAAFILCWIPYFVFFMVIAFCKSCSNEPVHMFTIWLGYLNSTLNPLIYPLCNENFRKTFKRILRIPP

SMILES: CNC(=S)N[C@@H]1C[C@H]2CC[C@@H](C1)N2Cc1nc[nH]c1C [Compound 11, N-Methyl-N'-[8-(5-methylimidazol-4-yl)methyl-1αH,5αH-nortropan-3β-yl]thiourea]
- H1-antihistaminic activity [1]: none of these compounds demonstrated significant H1 -antihistiminic activity
- maximum response obtained with histamine in presence of compound ([2]; 10^-6 M compound): 100%
- ED50 of histamine (95% CL) [2]: 40.7 (27.5-60.3) × 10^-7 M
- slope / shift of the histamine log dose-response curve in presence of compound ([2]; 10^-6 M compound): significantly steeper (P<0.05) than for metiamide; also recorded: shifted to higher concentrations
- histamine H2-receptor antagonist activity [2]: active; also recorded: approximately the same antagonist activity as metiamide
- histamine H2-receptor antagonist activity ([2]; listed as β-isomer): high H2 -antagonist activity
- Slope (95% CL) [2]: 0.99 (0.95-1.03)
- effect on heart rate or force of isolated right atrium, compound alone (isolated right atrium): without effect on heart rate or force

SMILES: CNC(=S)N[C@H]1C[C@H]2CC[C@@H](C1)N2Cc1nc[nH]c1C [Compound 17, N-Methyl-N'-[8-(5-methylimidazol-4-yl)methyl-1αH,5αH-nortropan-3α-yl]thiourea]
- H1-antihistaminic activity [1]: None of these compounds demonstrated significant histamine antagonist activity
- ED50 of histamine (95% CL) [2]: 11.0 (4.37-27.5) × 10^-7 M
- histamine H2-receptor antagonist activity [2]: without any significant activity; also recorded: None of these compounds demonstrated significant histamine antagonist activity
- Slope (95% CL) [2]: 0.64 (0.18-1.10)

SMILES: CNC(=NC#N)N[C@H]1C[C@H]2CC[C@@H](C1)N2Cc1nc[nH]c1C [Compound 18, N"-Cyano-N-methyl-N'-[8-(5-methylimidazol-4-yl)methyl-1αH,5αH-nortropan-3α-yl]guanidine]
- H1-antihistaminic activity [1]: None of these compounds demonstrated significant histamine antagonist activity
- ED50 of histamine (95% CL) [2]: 11.0 (5.01-24.0) × 10^-7 M
- histamine H2-receptor antagonist activity [2]: without significant activity; also recorded: None of these compounds demonstrated significant histamine antagonist activity
- Slope (95% CL) [2]: 0.64 (0.18-1.10)

SMILES: CNC(=NC#N)N[C@@H]1C[C@H]2CC[C@@H](C1)N2Cc1nc[nH]c1C [Compound 19, N"-Cyano-N-methyl-N'-[8-(5-methylimidazol-4-yl)methyl-1αH,5αH-nortropan-3β-yl]guanidine]
- H1-antihistaminic activity [1]: None of these compounds demonstrated significant histamine antagonist activity
- ED50 of histamine (95% CL) [2]: 6.92 (0.22-138.0) × 10^-7 M
- histamine H2-receptor antagonist activity [2]: without significant activity; also recorded: None of these compounds demonstrated significant histamine antagonist activity
- Slope (95% CL) [2]: 0.58 (0.23-0.93)

SMILES: CNC(=C[N+](=O)[O-])NCCSCc1ccc(CN(C)C)o1 [Ranitidine]
- H2 antagonism [3]: competitive antagonist, more potent than cimetidine
- prevention of histamine-induced gastric acid secretion [4]: more potent than cimetidine

SMILES: CN/C(=N/CCSCc1nc[nH]c1C)NC#N [cimetidine, reference compound]
- safety in clinical use (peptic ulcers): generally a safe agent
- ED50 of histamine (95% CL) [2]: 49.0 (43.7-55.0) × 10^-7 M
- ED50 of histamine on the right atrium [2]: 49.0±12.0 ×10^-7 M
- histamine H2-receptor antagonist activity [2]: significant antagonism of the chronotropic effect of histamine
- Slope (95% CL) [2]: 0.67 (0.28-1.06)

SMILES: NCCc1c[nH]cn1 [histamine, reference compound]
- Slope (95% CL) [2]: 0.63 (0.50-0.76)

SMILES: CNC(=S)NCCSCc1nc[nH]c1C [metiamide, reference compound]
- healing of peptic ulcers (peptic ulcers; clinical trials): effective in promoting the healing of peptic ulcers
- safety in clinical use (peptic ulcers): found to produce agranulocytosis
- Kb ([2]; KB=[B]/(dose ratio-1), 10^-6 M antagonist, read-out: KB (apparent dissociation constant)): 200 nM
- ED50 of histamine (95% CL) [2]: 49.0 (30.9-77.6) × 10^-7 M
- ED50 of histamine on the right atrium [2]: 49.0±12.0 ×10^-7 M
- slope / shift of the histamine log dose-response curve in presence of compound ([2]; 10^-6 M compound): parallel shift of the dose-response curves of histamine
- histamine H2-receptor antagonist activity [2]: significant antagonism of the chronotropic effect of histamine
- Slope (95% CL) [2]: 0.47 (0.41-0.53)
- Kb (H2-receptor): 920 nM
